Source: patent publication US11674965B2, “Method for preparing and analyzing fluorescent compounds in plasma” (MediBeacon, Inc., priority 2017, dated 2023)

Experiments:
[1] = cited from earlier work
[2] = Pharmacokinetic analysis of MB-102 in plasma of clinical study participants, iohexol co-dosed as reference marker; assay type: in vivo, human
Method: (§1) For the samples being analyzed by direct dilution, 10 μL of plasma sample (thawed to room temperature and mixed thoroughly) was diluted with 990 μL 1×PBS, mixed thoroughly for about 10 minutes, and centrifuged at 1000 rpm for 2 minutes. It was directly analyzed by HPLC.
Analyses were performed on a Waters Acquity UPLC H Class Chromatography System, equipped with column heater, sample heater/cooler, vacuum degasser, autosampler, fluorescence detector, and pump capable of delivering a binary gradient. An HPLC analytical column, Phenomenex Luna C18 (2), 4.6×250 mm, 5 μm, 100 Å (Phenomenex, Cat. No. 00G-4252-E0, S/N H15-133556), and a Security Guard Cartridge C18, 4×3 mm ID, 5 μm (Phenomenex, Cat. No. KJ0-4282) were used for the analysis. The Waters Empower 3 software equipped with the UPLC system was used for assay setup, analysis monitoring, and data processing. Two mobile phases, Mobile Phase A: 0.1% Trifluoroacetic acid in water (Fisher, Optima® Grade) and Mobile Phase B: 0.1% Trifluoroacetic acid in acetonitrile (Fisher Scientific, Optima® Grade) were used. […]
In support of the clinical studies to evaluate the utility of MB-102 for kidney function monitoring via transdermal fluorescence sensing, the plasma samples were prepared from blood samples collected at 0, 5, 10, 15, 30, 60, 90, 120, 180, 240, 300, 360, 480, 600, and 720 minutes of each study participant. […]

[3] = Freeze/thaw stability of MB-102 in plasma samples (three cycles, −80° C. to room temperature), HPLC with fluorescence detection; assay type: physicochemical, human; conditions: for % Recovered / Mean Concentration: 3 Freeze/Thaw cycles
Method: (§2) For sample preparation by direct dilution, calibration standards containing 0.4, 1.0, 2.0, 4.0, 10.0, 16.0, 40.0, 100.0, 200.0, 400.0 ng/mL and quality controls at low, mid, and high level of MB-102 were prepared in 1% human plasma in PBS on the day of the validation study or sample analysis. The MB-102 dosing solution (18.6 mg/mL) used in the clinical study was diluted 1/100 first with 1% human plasma in PBS to form a stock solution of 186 μg/mL MB-102. This stock solution is diluted further with 1% human plasma in PBS to form a calibration standard working stock of 2000 ng/mL MB-102 for preparation of calibration standards. A QC working stock at (300 ng/mL) was also prepared from the 186 μg/mL MB-102 stock by dilution with 1% plasma in PBS. The low, mid, and high levels of quality controls were prepared from this QC working stock by dilution with 1% human plasma in PBS.
as §1
(§3) Analyses were performed on a Waters Acquity UPLC H Class Chromatography System, equipped with column heater, sample heater/cooler, vacuum degasser, autosampler, fluorescence detector, and pump capable of delivering a binary gradient. An HPLC analytical column, Phenomenex Luna C18 (2), 4.6×250 mm, 5 μm, 100 Å (Phenomenex, Cat. No. 00G-4252-E0, S/N H15-133556), and a Security Guard Cartridge C18, 4×3 mm ID, 5 μm (Phenomenex, Cat. No. KJ0-4282) were used for the analysis. The Waters Empower 3 software equipped with the UPLC system was used for assay setup, analysis monitoring, and data processing. Two mobile phases, Mobile Phase A: 0.1% Trifluoroacetic acid in water (Fisher, Optima® Grade) and Mobile Phase B: 0.1% Trifluoroacetic acid in acetonitrile (Fisher Scientific, Optima® Grade) were used. The column temperature was set at 30° C., the autosampler temperature was set at 5° C., the excitation wavelength was set at 434 nm and the detection/emission wavelength was set at 556 nm. The counting rate was set at 5 point/sec; the PMT gain was set at 50; the flow cell temperature was ambient; the injection volume was 10 μL. MB-102 elutes at about 3.6 minutes using the gradient shown.
(§4) Using this HPLC method and sample preparation described herein, a validation study was carried out to determine the precision, accuracy, linearity, reproducibility, plasma and sample solution stability, freeze-thaw stability, lowest limits of quantitation, and specificity. The acceptance criterion was ±15% data deviation from normal values excepted at the lowest limit of quantitation (LLOQ) where it was set at ±20%. Samples were analyzed both in-house and at a GMP contract lab to ensure both the validity of the method and accuracy of the results.
(§5) MB-102 stability during sample handling upon long term storage of plasma samples (frozen at −80° C.) and short-term storage (bench top ambient temperature with/without light exposure, and 2-8° C.) of plasma solution was evaluated. Plasma samples were tested for three freeze/thaw cycles (−80° C. to room temperature). The stability of MB-102 in plasma solution at room temperature with/without light exposure, at 2-8° C., and at auto-sampler temperature (5° C.) was evaluated for time intervals of 24 and 48 hours.

[4] = Short-term stability of MB-102 in plasma solution (1% plasma/PBS) at 4° C. or room temperature with/without light, HPLC with fluorescence detection; assay type: physicochemical, human
Method: as §2, §1, §3, §4, §5

[5] = QCs stored at 4° C. for 48 hours, MB-102 3.7 ng/mL
[6] = QCs stored at 4° C. for 48 hours, MB-102 37.9 ng/mL
[7] = QCs stored at 4° C. for 48 hours, MB-102 372.6 ng/mL
[8] = QCs stored at RT with light, MB-102 3.7 ng/mL
[9] = QCs stored at RT with light, MB-102 37.9 ng/mL
[10] = QCs stored at RT with light, MB-102 372.6 ng/mL
[11] = QCs stored at RT without light, MB-102 3.7 ng/mL
[12] = QCs stored at RT without light, MB-102 37.9 ng/mL
[13] = QCs stored at RT without light, MB-102 372.6 ng/mL
[14] = Sample solution at 4° C. for 48 hours, MB-102 1.76 ng/mL
[15] = Sample solution at 4° C. for 48 hours, MB-102 8.81 ng/mL
[16] = Sample solution at 4° C. for 48 hours, MB-102 61.87 ng/mL

## CC(=O)N(CC(O)CO)c1c(I)c(C(=O)NCC(O)CO)c(I)c(C(=O)NCC(O)CO)c1I (centres unmarked) [Iohexol, iohexol]
[1]; patient
  metabolism: not metabolized
[1]; without tubular renal secretion or reabsorption
  route of elimination: entirely eliminated by simple glomerular filtration

## Nc1nc(C(=O)N[C@H](CO)C(=O)O)c(N)nc1C(=O)N[C@H](CO)C(=O)O [MB-102, (2R,2′R)-2,2′-((3,6-diaminopyrazine-2,5-dicarbonyl)bis(azanediyl))bis(3-hydroxypropanoic acid)]
[2]; 12 subjects, FIG. 7
  clearance rate: varies among patients
[2]; three subjects, iohexol co-dosed, FIGS. 8a-8c
  clearance rate compared with iohexol: parallel to that of iohexol
[3]; MB-102 1.76 ng/mL
  % Recovered: 101.7%
  Mean Concentration: 1.79 ng/mL
[3]; MB-102 8.81 ng/mL
  % Recovered: 100.0%
  Mean Concentration: 8.81 ng/mL
[3]; MB-102 61.87 ng/mL
  % Recovered: 100.8%
  Mean Concentration: 62.34 ng/mL
[3]; three freeze/thaw cycles, plasma at −80° C.
  stability over freeze/thaw cycles: very stable
[4]; [5]
  % Recovered: 101.1%
  Mean Concentration: 3.74 ng/mL
[4]; [6]
  % Recovered: 99.1%
  Mean Concentration: 37.55 ng/mL
[4]; [7]
  % Recovered: 100.2%
  Mean Concentration: 373.50 ng/mL
[4]; [8]
  % Recovered: 101.6%
  Mean Concentration: 3.76 ng/mL
[4]; [9]
  % Recovered: 96.0%
  Mean Concentration: 36.40 ng/mL
[4]; [10]
  % Recovered: 97.9%
  Mean Concentration: 364.59 ng/mL
[4]; [11]
  % Recovered: 104.6%
  Mean Concentration: 3.87 ng/mL
[4]; [12]
  % Recovered: 98.0%
  Mean Concentration: 37.15 ng/mL
[4]; [13]
  % Recovered: 100.0%
  Mean Concentration: 372.58 ng/mL
[4]; [14]
  % Recovered: 99.4%
  Mean Concentration: 1.75 ng/mL
[4]; [15]
  % Recovered: 98.3%
  Mean Concentration: 8.66 ng/mL
[4]; [16]
  % Recovered: 98.3%
  Mean Concentration: 60.84 ng/mL
[4]; solution stored at room temperature with light for 48 hours
  degradation of MB-102: 1-2%
[4]; stored at 4° C. for up to 48 hours
  sample solution stability: very stable
[4]; stored at room temperature without light for up to 48 hours
  sample solution stability: very stable
